Here are results for 16 molecules from publication PMC9415608, “Design, Synthesis and Biological Investigation of 2-Anilino Triazolopyrimidines as Tubulin Polymerization Inhibitors with Anticancer Activities” (Pharmaceuticals, 2022).

In one data set the test system is HT29. The experiment in a line: In vitro cell growth inhibition, resazurin viability assay. Type of data set: cell-based, human. The following applies: for IC50: Homo sapiens, HT-29, 72 h, resazurin, mean ± SE. The procedure: (§1) All the cell lines used in this paper were of human origin and purchased from the American Type Culture Collection (ATCC, Manassas, VA, USA). Colon adenocarcinoma (HT-29), non-small cell lung carcinoma (A549), cervix carcinoma (HeLa) and breast adenocarcinoma (MDA-MB-231) cells were grown in RPMI (HT29) or DMEM (A549, HeLa, MDA-MB-231) medium (Gibco, Milano, Italy). Both media were supplemented with 115 units/mL of penicillin G (Gibco, Milano, Italy), 115 μg/mL of streptomycin (Invitrogen, Milano, Italy) and 10% fetal bovine serum (Invitrogen, Milano, Italy). All cell lines were grown at 37 °C in a humidified 5% CO2 atmosphere. The cells were grown in 2 mL of complete medium.
(§2) Stock solutions were prepared for each compound by dissolving in DMSO at the final concentration of 10 mM.
(§3) The cells were seeded in 96-well plates at the appropriate density for each cell line. The respective cell line densities used for the antiproliferative assay were HeLa and HT29 5000 cells/well, A549 4000 cells/well and MDA-MB-231 7000 cells/well. The total volume of medium was 100 µL. After 24 h, the cells were treated by performing serial 5-fold dilutions of the tested compounds starting from a concentration of 10 μM. All experimental conditions were tested in triplicate for statistical analysis. After 72 h of incubation, 10 μL of 100 μg/mL resazurin solution was added to each well and the plate was re-incubated for 3–4 h. The fluorescence of the wells in each plate was monitored using a Spark 10M spectrophotometer (Tecan Group Ltd., Mannedorf, Switzerland) with a 535 nm excitation wavelength and a 600 nm emission wavelength.

For a further data set, the system named is A549. The description is as above. Type of data set: cell-based, human. Particulars: Homo sapiens, A549; 72 h, resazurin; mean ± SE. As for the experimental part: as §1, §2, §3
Another data set concerns MDA-MB-231. The data set is described as above. Type of data set: cell-based, human. The following applies: Homo sapiens, MDA-MB-231; 72 h, resazurin; mean ± SE. As for the experimental part:
as §1, §2, §3
On the technique in general: Resazurin is reduced to fluorescent resorufin, in cell work by metabolically active cells.

Another data set relates to HeLa. Described as above. In kind it is cell-based, human. Particulars: for IC50: Homo sapiens, 72 h, resazurin, mean ± SE. The procedure:
as §1, §2, §3

The test system of data set [1] is MDA-MB-231, HeLa, A549 and HT-29 cancer cell lines. The experiment in a line: Antiproliferative activity stated across the panel of cancer cell lines. In kind it is cell-based, human. Particulars: for IC50: Homo sapiens, read-out: IC50. The procedure: as §1, §2, §3
Setting [2] is: stated for the panel of cancer cell lines as a whole.

Each structure is given as a SMILES string. Where two headings read alike, the source gives them in different places.

`COc1cc(-c2ccnc3nc(Nc4cccc(C)c4)nn23)cc(OC)c1OC` [Compound 3e, N-(m-Tolyl)-7-(3,4,5-trimethoxyphenyl)-[1,2,4]triazolo[1,5-a]pyrimidin-2-amine]: the melting point (commonly the temperature of the solid-liquid transition) lay within 229 to 230 °C. Also, in the data set on HT29, the IC50 (commonly the concentration needed to halve the response being measured) came to 1.38 ± 0.09 µM. In addition, 1.87 ± 0.17 µM corresponded to half-maximal inhibition in the data set on A549 (IC50). For the same molecule, the IC50 with MDA-MB-231 is greater than 10 µM. The IC50 in the data set on HeLa was determined as 0.39 ± 0.02 µM. Also, the “fold reduction in antiproliferative activity relative to 3d” value in data set [1] (range over cell lines) is given as 10–46 fold.
For `COc1cc(-c2ccnc3nc(NCc4ccc5c(c4)OCO5)nn23)cc(OC)c1OC` [Compound 3t, N-(Benzo[d][1,3]dioxol-5-ylmethyl)-7-(3,4,5-trimethoxyphenyl)-[1,2,4]triazolo[1,5-a]pyrimidin-2-amine], the melting point lay within 233 to 235 °C. Besides, the IC50 in the data set with HT29 is greater than 10 µM. This molecule showed an IC50 in the data set with A549 greater than 10 µM. The molecule further yielded an IC50 with MDA-MB-231 greater than 10 µM. Besides, in the data set on HeLa, the IC50 was greater than 10 µM. Further, the 50% inhibitory concentration (IC50) in data set [1] (setting [2]) is greater than 10 µM.
`COc1ccc(CNc2nc3nccc(-c4cc(OC)c(OC)c(OC)c4)n3n2)cc1` [Compound 3s, N-(4-Methoxybenzyl)-7-(3,4,5-trimethoxyphenyl)-[1,2,4]triazolo[1,5-a]pyrimidin-2-amine] had a melting point of 190 to 192 °C. For the same molecule, the IC50 with HT29 is greater than 10 µM. In addition, the IC50 with A549 is greater than 10 µM. In the data set with MDA-MB-231, this molecule registered an IC50 greater than 10 µM. Moreover, the IC50 with HeLa is greater than 10 µM. The IC50 in data set [1] (setting [2]) was greater than 10 µM.
With `COc1cc(-c2ccnc3nc(NCc4ccccc4)nn23)cc(OC)c1OC` [Compound 3p, N-Benzyl-7-(3,4,5-trimethoxyphenyl)-[1,2,4]triazolo[1,5-a]pyrimidin-2-amine], the melting point is 144 to 146 °C. For the same molecule, the IC50 with HT29 is greater than 10 µM. Moreover, the IC50 in the data set on A549 was greater than 10 µM. Further, the half-maximal inhibitory concentration (IC50) in the data set with MDA-MB-231 was determined as 9.3 ± 0.22 µM. The same molecule gave a 50% inhibitory concentration (IC50) in the data set on HeLa greater than 10 µM. For the same molecule, the IC50 in data set [1] (setting [2]) is greater than 10 µM.
Regarding `COc1cc(-c2ccnc3nc(Nc4cccnc4)nn23)cc(OC)c1OC` [Compound 3b, N-(Pyridin-3-yl)-7-(3,4,5-trimethoxyphenyl)-[1,2,4]triazolo[1,5-a]pyrimidin-2-amine], the melting point was 172 to 174 °C. For the same molecule, the “fold reduction in potency relative to 3a” value with HT29 (HT-29 cells) worked out at 3 fold. In addition, the IC50 with HT29 came out at 3.42 ± 0.41 µM. In the data set with A549, this molecule gave an IC50 greater than 10 µM. In addition, the IC50 in the data set on MDA-MB-231 was greater than 10 µM. This molecule also came in with an IC50 in the data set with HeLa greater than 10 µM. In data set [1] (against three of the four cancer cell lines (not HT-29)), the IC50 was greater than 10 µM.
On to `COc1cc(-c2ccnc3nc(NCCCc4ccccc4)nn23)cc(OC)c1OC` [Compound 3v, N-(3-Phenylpropyl)-7-(3,4,5-trimethoxyphenyl)-[1,2,4]triazolo[1,5-a]pyrimidin-2-amine], for which the melting point lay in the range of 98 to 100 °C. Also, the IC50 in the data set with HT29 is greater than 10 µM. Moreover, the IC50 with A549 is greater than 10 µM. The molecule also had an IC50 in the data set with MDA-MB-231 greater than 10 µM. The same molecule yielded an IC50 in the data set with HeLa greater than 10 µM. For the same molecule, the IC50 in data set [1] (setting [2]) is greater than 10 µM.
Turning to `COc1cc(-c2ccnc3nc(Nc4ccc(F)cc4)nn23)cc(OC)c1OC` [Compound 3c, N-(4-Fluorophenyl)-7-(3,4,5-trimethoxyphenyl)-[1,2,4]triazolo[1,5-a]pyrimidin-2-amine], the melting point fell in the range of 234 to 235 °C. Moreover, in the data set with HT29, the IC50 was greater than 10 µM. This molecule also displayed an IC50 in the data set on A549 greater than 10 µM. Also, the IC50 in the data set with MDA-MB-231 was greater than 10 µM. Also, in the data set with HeLa, half-maximal inhibition (IC50) was put at 5.44 ± 1.05 µM.
Consider `CCOc1ccc(Nc2nc3nccc(-c4cc(OC)c(OC)c(OC)c4)n3n2)cc1` [Compound 3m, N-(4-Ethoxyphenyl)-7-(3,4,5-trimethoxyphenyl)-[1,2,4]triazolo[1,5-a]pyrimidin-2-amine], for which the melting point lay within 205 to 207 °C. This molecule also had an IC50 with HT29 of 6.16 ± 0.97 µM. The IC50 in the data set on A549 is greater than 10 µM. In the data set on MDA-MB-231, the IC50 was greater than 10 µM. This molecule showed an IC50 in the data set on HeLa greater than 10 µM. Further, the IC50 in data set [1] (setting [2]) is greater than 10 µM.
The molecule `COc1cc(-c2ccnc3nc(Nc4ccccc4)nn23)cc(OC)c1OC` [Compound 3a, N-Phenyl-7-(3,4,5-trimethoxyphenyl)-[1,2,4]triazolo[1,5-a]pyrimidin-2-amine] had a melting point of 235 to 236 °C.
As to `COc1cc(-c2ccnc3nc(NCc4ccc(Cl)cc4)nn23)cc(OC)c1OC` [Compound 3q, N-(4-Chlorobenzyl)-7-(3,4,5-trimethoxyphenyl)-[1,2,4]triazolo[1,5-a]pyrimidin-2-amine], the melting point was in the range of 171 to 173 °C. For the same molecule, the IC50 in the data set with HT29 was greater than 10 µM. Moreover, in the data set on A549, the IC50 was greater than 10 µM. Also, the IC50 in the data set with MDA-MB-231 was greater than 10 µM. This molecule also showed an IC50 in the data set with HeLa greater than 10 µM.
As to `CCCc1ccc(Nc2nc3nccc(-c4cc(OC)c(OC)c(OC)c4)n3n2)cc1` [Compound 3i, N-(4-Propylphenyl)-7-(3,4,5-trimethoxyphenyl)-[1,2,4]triazolo[1,5-a]pyrimidin-2-amine], the melting point fell in the range of 185 to 187 °C. The same molecule displayed an IC50 in the data set with HT29 greater than 10 µM. Further, in the data set with A549, the IC50 is greater than 10 µM. The IC50 in the data set on MDA-MB-231 is greater than 10 µM. In addition, in the data set on HeLa, the IC50 was greater than 10 µM.
Turning to `COc1cc(-c2ccnc3nc(NCCc4ccccc4)nn23)cc(OC)c1OC` [Compound 3u, N-Phenethyl-7-(3,4,5-trimethoxyphenyl)-[1,2,4]triazolo[1,5-a]pyrimidin-2-amine], the melting point was in the range of 138 to 139 °C. The molecule further had a half-inhibitory concentration (IC50) in the data set on HT29 of 6.74 ± 0.5 µM. The molecule further returned an IC50 with A549 greater than 10 µM. This molecule registered an IC50 with MDA-MB-231 of 8.7 ± 1.1 µM. In addition, the half-maximal inhibitory concentration (IC50) in the data set on HeLa was greater than 10 µM. Also, the IC50 in data set [1] (setting [2]) was greater than 10 µM.
`COc1ccc(Nc2nc3nccc(-c4cc(OC)c(OC)c(OC)c4)n3n2)cc1` [Compound 3k, N-(4-Methoxyphenyl)-7-(3,4,5-trimethoxyphenyl)-[1,2,4]triazolo[1,5-a]pyrimidin-2-amine] yielded a melting point of 213 to 215 °C.
In the case of `COc1cc(-c2ccnc3nc(Nc4ccc(C(C)C)cc4)nn23)cc(OC)c1OC` [Compound 3j, N-(4-Isopropylphenyl)-7-(3,4,5-trimethoxyphenyl)-[1,2,4]triazolo[1,5-a]pyrimidin-2-amine], the melting point fell in the range of 212 to 214 °C. Also, in the data set with HT29, the IC50 was greater than 10 µM. In the data set on A549, this molecule came in with an IC50 greater than 10 µM. Further, the IC50 in the data set with MDA-MB-231 is greater than 10 µM. In the data set on HeLa, this molecule gave an IC50 of 4.7 ± 0.59 µM.
The molecule `COc1cc(-c2ccnc3nc(Nc4ccc5c(c4)OCO5)nn23)cc(OC)c1OC` [Compound 3n, N-(Benzo[d][1,3]dioxol-5-yl)-7-(3,4,5-trimethoxyphenyl)-[1,2,4]triazolo[1,5-a]pyrimidin-2-amine] came in with a melting point of 234 to 236 °C. In the data set with HT29, this molecule gave an IC50 of 1.39 ± 0.06 µM. The 50% inhibitory concentration (IC50) with A549 worked out at 1.44 ± 0.26 µM. Further, inhibition with MDA-MB-231 was half-maximal at 6.1 ± 1.72 µM (IC50). Besides, the “fold increase in antiproliferative activity relative to 3k” value in data set [1] (three of the four cancer cell lines) was 1.5- to 4 fold.
Molecule `COc1cc(-c2ccnc3nc(Nc4ccc5c(c4)OCCO5)nn23)cc(OC)c1OC` [Compound 3o, N-(2,3-Dihydrobenzo[b][1,4]dioxin-6-yl)-7-(3,4,5-trimethoxyphenyl)-[1,2,4]triazolo[1,5-a]pyrimidin-2-amine] returned a melting point of 212 to 214 °C. Moreover, in the data set on HT29 (HT-29 cells), the “fold more active than 3n” value is recorded as 2 fold. Also, inhibition in the data set on HT29 was half-maximal at 0.67 ± 0.12 µM (IC50). For the same molecule, in the data set on A549, the IC50 was 2.42 ± 0.12 µM. The IC50 in the data set on MDA-MB-231 is greater than 10 µM. The “fold more active than 3n” value in the data set on HeLa (HeLa cells) is listed as 3 fold. This molecule also showed an IC50 in the data set with HeLa of 0.29 ± 0.031 µM.
